A short description of data set [1]: Molar enthalpy of transition or fusion. The following applies: Crystal; DSC.
For data set [2] the following is noted: Crystal; DTA.

± gives the expanded uncertainty stated by the source.

As for `Clc1ccc2c(c1)Nc1ccccc1S2` [2-chlorophenothiazine], the “Molar enthalpy of transition or fusion” value in data set [1] was found to be 5.16 ± 0.22 kcal/mol. The Normal melting temperature in data set [2] was 199.80 ± 1.1 °C.

The record behind these values is the NIST ThermoML archive (doi:10.1016/j.jct.2016.11.029).
